Test results from ChEMBL document CHEMBL1137961, “Benzimidazolone p38 inhibitors” (Bioorg Med Chem Lett, 2004).

Each compound was assayed against Mitogen-activated protein kinase 14 (Homo sapiens, UniProt Q16539) (assay: Inhibitory activity against mitogen activated protein (MAP) kinase p38 alpha.).
Mitogen-activated protein kinase 14, sequence (Q16539 whole entry): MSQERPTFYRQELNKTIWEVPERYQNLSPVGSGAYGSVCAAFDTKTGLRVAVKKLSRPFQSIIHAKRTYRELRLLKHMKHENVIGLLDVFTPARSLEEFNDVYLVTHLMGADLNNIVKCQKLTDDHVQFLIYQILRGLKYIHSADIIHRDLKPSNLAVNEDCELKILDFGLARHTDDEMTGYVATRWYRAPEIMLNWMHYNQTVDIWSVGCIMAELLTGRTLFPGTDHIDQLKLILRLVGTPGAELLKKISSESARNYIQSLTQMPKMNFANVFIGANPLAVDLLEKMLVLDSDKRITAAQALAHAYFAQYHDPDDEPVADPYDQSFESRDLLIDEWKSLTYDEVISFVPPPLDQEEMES
Work on CCn1c(=O)n(CC)c2cc(-c3cc(-c4cccnc4)[nH]c3-c3cccc(C)c3)ccc21 yielded an IC50 of over 1000 nM.
In the case of Cn1c(=O)n(C)c2cc(-c3[nH]c(-c4cccs4)nc3-c3ccc(F)cc3)ccc21, the IC50 is reported as 270 nM.
Cc1cccc(-c2nc[nH]c2-c2ccc3c(c2)n(C)c(=O)n3C)c1 gave an IC50 of 100 nM.
In the case of Cn1c(=O)n(C)c2cc(-c3[nH]c(-c4cccs4)nc3-c3ccccc3F)ccc21, the IC50 is reported as 370 nM.
For Cn1c(=O)n(C)c2cc(-c3[nH]c(-c4cccs4)nc3-c3ccccc3Cl)ccc21, the IC50 was 540 nM.
Cc1ccccc1-c1nc(-c2cccs2)[nH]c1-c1ccc2c(c1)n(C)c(=O)n2C was tested, and the IC50 was 6200 nM.
CCn1c(=O)n(CC)c2cc(-c3[nH]cnc3-c3cccc(C)c3)ccc21 gave an IC50 of 50 nM.
Compound Cn1c(=O)n(C)c2cc(-c3[nH]c(-c4cccs4)nc3-c3cccc(F)c3)ccc21 has an IC50 of 390 nM.
In the case of Cn1c(=O)n(C)c2cc(-c3[nH]c(-c4ccc([S+](C)[O-])cc4)nc3-c3ccc(F)cc3)ccc21 (stereo not given), the IC50 is reported as 4000 nM.
Work on CCn1c(=O)n(CC)c2cc(-c3[nH]cnc3-c3ccccc3)ccc21 yielded an IC50 of 140 nM.
With Cc1cccc(-c2nc(C3CCNCC3)[nH]c2-c2ccc3c(c2)n(C)c(=O)n3C)c1 the IC50 was 70 nM.
Cc1cccc(-c2nncn2-c2ccc3c(c2)n(C)c(=O)n3C)c1 gave an IC50 of 12500 nM.
Compound CC(C)c1cccc(-c2[nH]c(-c3cccs3)nc2-c2ccc3c(c2)n(C)c(=O)n3C)c1 has an IC50 of over 32000 nM.
For CCn1c(=O)n(CC)c2cc(-c3c[nH]nc3-c3cccc(C(F)(F)F)c3)ccc21, the IC50 was 60 nM.
In the case of CCc1cccc(-c2[nH]c(-c3cccs3)nc2-c2ccc3c(c2)n(C)c(=O)n3C)c1, the IC50 is reported as 500 nM.
In the case of Cn1c(=O)n(C)c2cc(-c3[nH]c(-c4cccs4)nc3-c3ccc(Cl)cc3)ccc21, the IC50 is reported as 680 nM.
Cn1c(=O)n(C)c2cc(-c3[nH]cnc3-c3ccc(F)cc3)ccc21 gave an IC50 of 140 nM.
For Cn1c(=O)n(C)c2cc(-c3[nH]cnc3-c3ccccc3)ccc21, the IC50 was 290 nM.
CCn1c(=O)n(CC)c2cc(-c3c(-c4ccc(F)cc4)ncn3C3CCNCC3)ccc21 gave an IC50 of 90 nM.
Work on CCn1c(=O)n(CC)c2cc(-c3[nH]c(-c4cccnc4)nc3-c3cccc(C)c3)ccc21 yielded an IC50 of 70 nM.
Work on Cc1cccc(-c2[nH]c3nc(N)ccc3c2-c2ccc3c(c2)n(C)c(=O)n3C)c1 yielded an IC50 of 260 nM.
Compound CCn1c(=O)n(CC)c2cc(-c3cccnc3-c3cccc(C)c3)ccc21 has an IC50 of over 1000 nM.
Cn1c(=O)n(C)c2cc(-c3[nH]c(-c4cccs4)nc3-c3cccc(C(F)(F)F)c3)ccc21 showed an IC50 of 1500 nM.
With Cn1c(=O)n(C)c2cc(-c3[nH]c(-c4cccs4)nc3-c3ccccc3)ccc21 the IC50 was 260 nM.
In the case of CCn1c(=O)n(CC)c2cc(-c3ccnn3-c3cccc(C)c3)ccc21, the IC50 is reported as 690 nM.
CCn1c(=O)n(CC)c2cc(-c3ocnc3-c3cccc(C)c3)ccc21 gave an IC50 of 800 nM.
CCn1c(=O)n(CC)c2cc(-c3c[nH]nc3-c3ccccc3)ccc21 showed an IC50 of 200 nM.
With CCc1ccc(-c2[nH]c(-c3cccs3)nc2-c2ccc3c(c2)n(C)c(=O)n3C)cc1 the IC50 was 8000 nM.
With CCn1c(=O)n(CC)c2cc(-c3[nH]cnc3-c3ccc(F)cc3)ccc21 the IC50 was 100 nM.
Compound Cn1c(=O)n(C)c2cc(-c3n[nH]cc3-c3ccccc3)ccc21 has an IC50 of 2500 nM.
Cc1cccc(-c2nc(-c3cccs3)[nH]c2-c2ccc3c(c2)n(C)c(=O)n3C)c1 was tested, and the IC50 was 140 nM.
For CCn1c(=O)n(CC)c2cc(-c3c(-c4cccc(C)c4)nc(C4CCNCC4)n3C)ccc21, the IC50 was 1250 nM.
Cn1c(=O)n(C)c2cc(-c3[nH]c(-c4cccs4)nc3-c3cccc(OC(F)(F)F)c3)ccc21 showed an IC50 of 15800 nM.
Cc1cccc(-n2cncc2-c2ccc3c(c2)n(C)c(=O)n3C)c1 showed an IC50 of 14400 nM.
Cn1c(=O)n(C)c2cc(-c3[nH]c(-c4cccs4)nc3-c3cccc(Cl)c3)ccc21 gave an IC50 of 380 nM.
CCn1c(=O)n(CC)c2cc(-c3c[nH]cn3)ccc21 gave an IC50 of over 1000 nM.
CCn1c(=O)n(CC)c2cc(-c3n[nH]cc3-c3ccccc3)ccc21 was tested, and the IC50 was 680 nM.
In the case of Cc1ccc(-c2nc(-c3cccs3)[nH]c2-c2ccc3c(c2)n(C)c(=O)n3C)cc1, the IC50 is reported as 1800 nM.
CCn1c(=O)n(CC)c2cc(-c3c[nH]nc3-c3cccc(C)c3)ccc21 gave an IC50 of 9 nM.
CCn1c(=O)n(CC)c2cc(-c3n[nH]cc3-c3cccc(C)c3)ccc21 gave an IC50 of 730 nM.
CCn1c(=O)n(CC)c2cc(-n3nnnc3-c3ccc(F)c(C)c3)ccc21 was tested, and the IC50 was over 1000 nM.
Compound CCn1c(=O)n(CC)c2cc(-c3nnnn3-c3ccc(F)c(C)c3)ccc21 has an IC50 of over 1000 nM.
CCn1c(=O)n(CC)c2cc(-c3c[nH]nc3-c3ccc(F)c(C)c3)ccc21 was tested, and the IC50 was 30 nM.
Work on Cn1c(=O)n(C)c2cc(-c3c[nH]nc3-c3ccccc3)ccc21 yielded an IC50 of 200 nM.
For Cc1cccc(-c2nc(-c3cccnc3)[nH]c2-c2ccc3c(c2)n(C)c(=O)n3C)c1, the IC50 was 200 nM.
